Patent US8846330B2, “Methods and kits for the diagnosis of RyR1-related diseases” (The Henry M. Jackson Foundation for the Advancement of …, priority 2008, dated 2014)
“And” between values parts separate entries of the source, which are not always exact repeats. Equal values may be shown once. “Also recorded” adds a separate entry of the source.

Key:
Assay type in all cases: cell-based
[1] = system: lymphocyte cells; assay: 4CmC-induced adenosine plus inosine in cultured swine lymphocytes (Example 2); settings: for adenosine plus inosine level upon stimulation with 4CmC, mean±SEM: 5 mM 4CmC
Experimental: Lymphocyte cells were isolated from whole arterial blood sample (40 ml) obtained from homozygous recessive MHS (n=5) and normal (n=3) swine by the Ficoll-Hypaque centrifugation technique. Lymphocyte cells were then cultured in RPMI-1640 media supplemented with 10% fetal bovine serum plus 100 units/liter penicillin at 37° C. under 5% CO2 for 2 to 3 weeks. After cell culture period, cell's (5−15×10^4 cells) were suspended in Hanks' balanced salt solution (HBSS)+1% bovine serum albumin and treated with specific RyR1 agonist 4-chloro-m-cresol (4CmC, 5 mM) at 37° C. in the presence and absence of inhibitor of adenosine deaminase erythro-9-(2-hydroxy-3-nonyl) adenine (EHNA, 0.1 mM) for 30 minutes. After purification using 12% HClO4 followed by centrifugation (10 minutes, 4000 RPM), aliquot of sample (50 μl) was assayed for adenosine and inosine content using high performance liquid chromatography (HPLC). Data are normalized to per 1 million cells, compared using one way ANOVA, and presented as mean±SEM. P<0.05 considered significant.

[2] = system: lymphocyte cells; assay: 4CmC-induced adenosine in human lymphocyte / immortalized B cells (Example 3); settings: for ADO level at maximum of 4CmC dose response, mean±SEM: 2 mM 4CmC, EHNA 0.1 mM
[3] = system: lymphocyte cells; assay: 4CmC-induced adenosine/inosine in human peripheral blood lymphocytes, HPLC (Example 1); settings: for 4CmC response (adenosine plus inosine) in MHS group relative to MHN or normal groups: EHNA 0.1 mM
Experimental: FIG. 2 is a dose-response curve for 4-chloro-m-cresol (4CmC)-induced intracellular adenosine plus inosine in lymphocyte cells from malignant hyperthermia susceptible (MHS, n=11), not-susceptible (MHN, n=9), and normal (n=7) subjects. Lymphocyte cells were treated with 4CmC in the presence of an inhibitor of adenosine deaminase (EHNA, 0.1 mM). After purification, aliquot was analyzed for adenosine and inosine content using HPLC. Adenosine plus inosine values in the absence of 4CmC are plotted against X=0.02 mM to allow logarithmic display of the entire dose response curve. Adenosine plus inosine levels were normalized to reflect per 1 million cells. 4CmC responses at 1, 2, and 5 mM on MHS groups are about 4, 4, and 6 fold higher than the corresponding values in MI-1N or normal groups with values of 6×10^−5, 8×10^−5, and […], respectively. There were no overlaps between the MHS group and the MHN or normal groups.
Lymphocyte cells from MHS (n=11), MHN (n=9) and normal (n=7) subjects were suspended in normal HBSS plus 0.1% BSA and treated with adenosine deaminase inhibitor (EHNA, 0.1 mM). After 10 minutes of incubation at 37° C., cells were treated with HBSS, with and without the RyR1 agonist 4CmC (5 mM) and incubated at 37° C. for an additional 45 minutes. After termination and purification of the samples, aliquots (50 μl) were assayed in duplicate for adenosine and inosine content using HPLC. Concentrations are normalized to per 1 million cells. The sum of the adenosine plus inosine level is about 6-fold higher than corresponding values in normal and MHN cells.
Pilot studies were conducted using blood samples from human subjects in the following groups: Group 1: MHS subjects with positive CHCT and/or having a known MH associated mutation (n=11); Group 2: non-MH susceptible with negative CHCT results (MHN) (n=9), and Group 3: normal subjects who had not undergone CHCT and had no family history of MH (n=7).
Briefly, venous blood samples (20 ml) were drawn from patients using heparinized blood collection tubes. Peripheral blood lymphocyte cells were isolated from whole blood by the Ficoll-Hypaque centrifugation technique. Briefly, diluted anti-coagulated blood is layered over Ficoll-Hypaque and centrifuged. Mononuclear cells consisting of lymphocytes and some monocytes are recovered at the interface. The cells were washed with the Flanks' balanced salt solution (HBSS) buffer, re-suspended in the HBSS buffer, and treated with different concentration of 4CmC at 37° C. in the presence and/or absence of inhibitor of adenosine deaminase erythro-9-(2-hydroxy-3-nonyl)adenine (EHNA) for about 30 minutes. The cells were then purified by adding an equal volume of 6% HClO4 and centrifuged at 6000 rpm for 10 minutes. Aliquots of the supernatant were analyzed for adenosine and inosine content with HPLC using a Waters Separation Module (Model 2695) equipped with Waters Photodiode Array Detector and Empower software.

Cc1cc(O)ccc1Cl [4CmC, 4-chloro-m-cresol]
adenosine plus inosine level upon stimulation with 4CmC, mean±SEM ([1]; MHS swine (n=5)): 8.06 ± 0.9 µM | adenosine plus inosine level upon stimulation with 4CmC, mean±SEM ([1]; normal swine (n=3)): 1.16 ± 0.3 µM | increase of nucleoside production on 4CmC stimulation ([1]; lymphocytes from MHS swine): nine-fold increase | effect of 4CmC stimulation on nucleoside (adenosine plus inosine) production ([1]; lymphocytes from normal swine): minimal, if any, effect | ADO level at maximum of 4CmC dose response, mean±SEM ([2]; MHS cells): 1.71 ± 0.13 µM | ADO level at maximum of 4CmC dose response, mean±SEM ([2]; normal cells): 0.61 ± 0.11 µM | 4CmC-induced adenosine in MHS (CHCT-positive) versus normal / CHCT-negative lymphocyte cells ([2]; FIG. 5 and 6): significantly higher; also recorded: significantly greater | 4CmC concentration at which ADO levels maximized ([2]; human lymphocytes): 2 mM | 4CmC response (adenosine plus inosine) in MHS group relative to MHN or normal groups ([3]; 1 mM 4CmC): about 4 fold | 4CmC response (adenosine plus inosine) in MHS group relative to MHN or normal groups ([3]; 2 mM 4CmC): about 4 fold | stimulation of adenosine plus inosine formation in control and MHN samples ([3]; 5 mM 4CmC (maximum effective dose)): did not, or minimally stimulated | stimulation of nucleosides formation by 4CmC in MHS samples ([3]; 5 mM 4CmC, FIG. 3): ~6 fold | adenosine plus inosine level after 4CmC treatment, mean±SEM ([3]; 5 mM 4CmC, MHN group (n=9)): 5.4 ± 0.6 µM | adenosine plus inosine level after 4CmC treatment, mean±SEM ([3]; 5 mM 4CmC, MHS group (n=11)): 35.6 ± 3.1 µM | adenosine plus inosine level after 4CmC treatment, mean±SEM ([3]; 5 mM 4CmC, normal group (n=7)): 5.6 ± 1 µM | [Adenosine] μM Post 5 mM 4CmC ([3]; lymphocytes of single normal subjects, 5 mM 4CmC): 0.220 µM and 0.144 µM and 0.246 µM and 0.154 µM and 0.276 µM and 0.177 µM and 0.268 µM | 4CmC concentration at which inosine release reaches saturation ([3]; without EHNA): about 5 mM | 4CmC concentrations that stimulate inosine release dose-dependently ([3]; without EHNA): above 1 mM | effect of 4CmC on adenosine formation ([3]; without adenosine deaminase inhibitor): not affected
